From ChEMBL document CHEMBL3351430, “Inhibition studies of new ureido-substituted sulfonamides incorporating a GABA moiety against human carbonic anhydrase isoforms I-XIV” (Bioorg Med Chem, 2014)

Key:
Carbonic anhydrase 9 = Carbonic anhydrase 9 (Homo sapiens, UniProt Q16790)
Description: Inhibition of human recombinant carbonic anhydrase 9 pre-incubated for 15 mins by stopped-flow CO2 hydration assay

Carbonic anhydrase 13 = Carbonic anhydrase 13 (Homo sapiens, UniProt Q8N1Q1)
Description: Inhibition of human recombinant carbonic anhydrase 13 pre-incubated for 15 mins by stopped-flow CO2 hydration assay

Carbonic anhydrase 3 = Carbonic anhydrase 3 (Homo sapiens, UniProt P07451)
Description: Inhibition of human recombinant carbonic anhydrase 3 pre-incubated for 15 mins by stopped-flow CO2 hydration assay

Carbonic anhydrase 6 = Carbonic anhydrase 6 (Homo sapiens, UniProt P23280); assay: Inhibition of human recombinant carbonic anhydrase 6 pre-incubated for 15 mins by stopped-flow CO2 hydration assay
Sequence of Carbonic anhydrase 6 (P23280 whole entry): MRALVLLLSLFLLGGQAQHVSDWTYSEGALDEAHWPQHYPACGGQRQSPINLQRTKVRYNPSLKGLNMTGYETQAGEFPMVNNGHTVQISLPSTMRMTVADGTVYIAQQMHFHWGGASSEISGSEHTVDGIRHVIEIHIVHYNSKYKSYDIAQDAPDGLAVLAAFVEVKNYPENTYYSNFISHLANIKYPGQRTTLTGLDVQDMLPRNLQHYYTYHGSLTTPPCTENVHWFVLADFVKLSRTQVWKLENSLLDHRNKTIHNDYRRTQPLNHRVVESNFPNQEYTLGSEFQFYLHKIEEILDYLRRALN

Sequence of Carbonic anhydrase 3 (P07451 whole entry): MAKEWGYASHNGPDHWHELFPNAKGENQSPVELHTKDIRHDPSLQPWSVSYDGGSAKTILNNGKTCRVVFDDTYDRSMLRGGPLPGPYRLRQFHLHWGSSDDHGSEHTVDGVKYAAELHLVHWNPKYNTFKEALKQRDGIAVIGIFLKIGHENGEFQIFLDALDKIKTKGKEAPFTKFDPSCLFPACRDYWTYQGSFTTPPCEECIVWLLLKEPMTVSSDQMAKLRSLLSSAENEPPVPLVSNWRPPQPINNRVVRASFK
Sequence of Carbonic anhydrase 13 (Q8N1Q1 whole entry): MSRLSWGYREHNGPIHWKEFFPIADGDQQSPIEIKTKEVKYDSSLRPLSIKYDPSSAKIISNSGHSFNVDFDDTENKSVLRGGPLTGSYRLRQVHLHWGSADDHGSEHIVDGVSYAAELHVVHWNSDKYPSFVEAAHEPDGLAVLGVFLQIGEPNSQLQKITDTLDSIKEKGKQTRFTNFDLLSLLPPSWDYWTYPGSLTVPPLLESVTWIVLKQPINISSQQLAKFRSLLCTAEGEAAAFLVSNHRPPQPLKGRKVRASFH

Row | Compound | Ki (Carbonic anhydrase 9) | Ki (Carbonic anhydrase 13) | Ki (Carbonic anhydrase 3) | Ki (Carbonic anhydrase 6)
1 | NS(=O)(=O)c1ccc(CCNC(=O)CCCNC(=O)NCc2ccccc2)cc1 | 106 nM | > 240 nM | > 21000 nM | > 120 nM
2 | NS(=O)(=O)c1ccc(CNC(=O)CCCNC(=O)NCCc2ccccc2)cc1 | 301 nM | > 240 nM | > 21000 nM | > 120 nM
3 | NS(=O)(=O)c1ccc(CCNC(=O)CCCNC(=O)Nc2ccc([N+](=O)[O-])cc2)cc1 | 139 nM | > 240 nM | > 21000 nM | > 120 nM

Results, then the molecule that gave them:

Row | Ki (Carbonic anhydrase 9) | Ki (Carbonic anhydrase 13) | Ki (Carbonic anhydrase 3) | Ki (Carbonic anhydrase 6) | Compound
4 | 46 nM | > 240 nM | > 21000 nM | > 120 nM | NS(=O)(=O)c1ccc(CNC(=O)CCCNC(=O)Nc2ccccc2)cc1
5 | 41.6 nM | > 240 nM | > 21000 nM | > 120 nM | NS(=O)(=O)c1ccc(CCNC(=O)CCCNC(=O)Nc2ccccc2)cc1
6 | – | > 240 nM | > 21000 nM | > 120 nM | NS(=O)(=O)c1ccc(CNC(=O)CCCNC(=O)NCc2ccccc2)cc1
